Article PMC6477744, “Mebendazole-induced M1 polarisation of THP-1 macrophages may involve DYRK1B inhibition” (BMC Research Notes, 2019)

Target: Dual specificity tyrosine-phosphorylation-regulated kinase 1B (DYRK1B) (Homo sapiens, UniProt Q9Y463)
Experiment: DiscoverX competition binding assay (DNA-tagged kinase, 11-point Kd); also enzyme inhibition IC50 […] at […] ATP

Dual specificity tyrosine-phosphorylation-regulated kinase 1B (DYRK1B), sequence (Q9Y463 whole entry): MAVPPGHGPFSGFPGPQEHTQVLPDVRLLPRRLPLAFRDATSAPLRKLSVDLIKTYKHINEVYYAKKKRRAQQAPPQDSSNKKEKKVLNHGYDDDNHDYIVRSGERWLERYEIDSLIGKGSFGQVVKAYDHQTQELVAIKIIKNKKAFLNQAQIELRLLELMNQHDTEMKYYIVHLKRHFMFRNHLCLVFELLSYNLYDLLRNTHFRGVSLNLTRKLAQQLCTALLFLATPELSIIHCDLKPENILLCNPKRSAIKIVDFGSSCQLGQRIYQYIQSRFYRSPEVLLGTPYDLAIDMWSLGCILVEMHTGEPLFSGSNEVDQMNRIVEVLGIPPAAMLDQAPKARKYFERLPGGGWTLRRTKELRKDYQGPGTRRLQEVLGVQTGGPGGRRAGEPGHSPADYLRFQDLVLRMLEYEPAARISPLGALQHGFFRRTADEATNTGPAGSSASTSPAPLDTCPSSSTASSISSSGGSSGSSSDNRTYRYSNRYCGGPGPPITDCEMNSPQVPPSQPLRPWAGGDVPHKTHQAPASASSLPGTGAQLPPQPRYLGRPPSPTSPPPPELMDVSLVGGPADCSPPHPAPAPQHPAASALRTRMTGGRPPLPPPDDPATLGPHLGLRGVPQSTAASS

Kd: 7 nM
SMILES: COC(=O)Nc1nc2ccc(C(=O)c3ccccc3)cc2[nH]1 [MBZ, mebendazole]
